Where a name gives a salt, the structure may show the parent alone. Read-outs that look alike come from different tables or passages of the source. Blank lines part the entries; values can stand above or below the molecule they belong to.
What was measured:
[1] = biological target: T1, Oregon Green labelled Aβ1-42 (Homo sapiens, UniProt P05067); assay: FCS-assay with 5 nM Oregon Green labelled Aβ-peptide (disaggregation of preformed aggregates); type: biochemical
T1 construct: DMSO-stock solutions of Oregon Green labelled Aβ1-42 1:1 with deionized water
T1 sequence (P05067 672-713 limits assumed): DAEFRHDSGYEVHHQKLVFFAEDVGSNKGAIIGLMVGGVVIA
Experimental: In order to analyse for the disaggregating properties of the compounds, preformed aggregates were used, which were induced straight before the FCS-measurement by diluting 500 nM DMSO-stock solutions of Oregon Green labelled Aβ1-42 1:1 with deionized water. The final concentration of Oregon Green labelled Aβ-peptide was 5 nM in 1×PBS and 3% DMSO. In order to improve the reproducibility of the measurements of the concentration dependencies of all samples were prepared fourfold.

[2] = biological target: T2, amyloid beta (Aβ) 1-42 peptide (Homo sapiens, UniProt P05067); assay: Thioflavin T spectrofluorescence assay, inhibition of Aβ1-42 aggregation; type: biochemical
T2 construct: amyloid beta (Aβ) 1-42 peptide; purchased Bachem
T2 sequence (P05067 672-713 limits assumed): as above
Experimental: A number of the small molecules were tested for their capacity to inhibit the aggregation of amyloid beta (Aβ) 1-42 peptide using a thioflavin T spectrofluorescence assay.
Aβ1-42 lyophilized powder (Bachem) was reconstituted in hexafluoroisopropanol (HFIP) to 1 mM. The peptide solution was sonicated for 15 min at room temperature, agitated overnight, and aliquots were placed into non-siliconized microcentrifuge tubes. The HFIP was then evaporated under a stream of argon. The resulting peptide film was dried under vacuum for 10 min, tightly sealed and stored at −80° C. until used.
To assay for the small molecule-mediated inhibition of Aβ1-42 aggregation, the small molecules were dissolved before each experiment in anhydrous dimethyl sulfoxide (DMSO, Sigma-Aldrich) to reach a concentration of 7.4 mM. Aβ1-42 peptide film was dissolved in DMSO to reach 400 μM. Assay solution in PBS buffer was prepared in non-siliconized incubation tubes to reach the following concentrations: 330 μM small molecule, 33 μM Aβ1-42, 10 μM thioflavin T (ThT), and 12.8% DMSO. Therefore, the final molar ratio of small molecule to Aβ1-42 was 10:1. A positive control without a small molecule was prepared to measure maximum RFU. A negative control without Aβ1-42 was prepared for each small molecule. 3-Aminopyrazole trimer (Trimer) was tested in all assays to ascertain reproducibility between independent experiments. The solutions were incubated for 24 hrs at 37° C., and the spectrofluorescence (relative fluorescence units; RFU) was read in six replicates in black 384-well assay plates (Perkin-Elmer) on a Perkin-Elmer FluoroCount spectrofluorometer. Inhibition of aggregation is expressed as mean % inhibition or ±1 standard deviation (SD) according to the following equation: […]
Cut-off criterium for the selection of functional molecules was defined at 50% inhibition capacity.
The small molecules were evaluated for their capacity to mediate inhibition of Aβ1-42 aggregation at a 10:1 small molecule to Aβ1-42 molar ratio. The results are expressed as mean±standard deviation of two independent experiments.

[3] = prior-art compound, stated in background; cited from earlier work
[4] = prior-art compound, stated in background; cited from earlier work; remark: listed apart in the source

- percentage of the "number of peaks" value obtained for the control reaction without added compound ([1]; 200 nM compound): 67.2%
- percentage of the "peaks x height" value obtained for the control reaction without added compound ([1]; 200 nM compound): 53.3%
- inhibition at 330 µM ([2]; 330 μM small molecule, 33 μM Aβ1-42 (10:1 molar ratio), 24 hrs at 37° C., mean ± SD of two independent experiments, read-out: % inhibition): 86.8 ± 2.9%
Molecule: Fc1ccc(-c2cc(NCc3cccc(NCc4ccccc4)n3)n[nH]2)cc1 [Compound 2t, N-Benzyl-6-((5-(4-fluorophenyl)-1H-pyrazol-3-ylamino)methyl)pyridin-2-amine]

Molecule: Clc1ccc(-c2csc(NCc3cnc(NCc4ccccc4)s3)n2)cc1 [Compound 2ak, N-Benzyl-5-((4-(4-chlorophenyl)thiazol-2-ylamino)methyl)thiazol-2-amine]
- inhibition at 330 µM ([2]; 24 h): 37.2 ± 14.8%
- melting point: 105 to 106 °C

- melting point: 261 to 262 °C
Molecule: Nc1cccc(NCc2ccc(NCc3ccccc3)nc2)n1 (as salt: hydrochloride) [Compound 2y, N^2-((6-(benzylamino)pyridin-3-yl)methyl)pyridine-2,6-diamine]

- melting point: 93 to 94 °C
Molecule: CCCCNc1cccc(CNc2cc(-c3ccc(F)cc3)[nH]n2)n1 [Compound 2am, N-Butyl-6-((5-(4-fluorophenyl)-1H-pyrazol-3-ylamino)methyl)pyridin-2-amine]

Molecule: CCCNc1ncc(CNc2ncc(CNc3nc(-c4ccc(C)cc4)cs3)s2)s1 (as salt: hydrochloride) [Compound 2ad, N-Propyl-5-((5-((4-p-tolylthiazol-2-ylamino)methyl)thiazol-2-ylamino)methyl)thiazol-2-amine trihydrochloride]
- melting point: > 135 °C (dec.)

Molecule: Fc1ccc(-c2cc(NCc3cnc(NCc4ccccc4)s3)n[nH]2)cc1 (as salt: hydrochloride) [Compound 2k, N-Benzyl-5-((5-(4-fluorophenyl)-1H-pyrazol-3-ylamino)methyl)thiazol-2-amine dihydrochloride]
- melting point: 78 to 80 °C

Molecule: CNc1ncc(CNc2nc(-c3ccc(Cl)cc3)cs2)s1 (as salt: hydrochloride) [Compound 2aa, 4-(4-Chlorophenyl)-N-((2-(methylamino)thiazol-5-yl)methyl)thiazol-2-amine dihydrochloride]
- melting point: 122 to 123 °C

Molecule: c1ccc(CNc2ncc(CNc3nc(-c4cccs4)cs3)s2)cc1 (as salt: hydrochloride) [Compound 2al, N-Benzyl-5-((4-(thiophen-2-yl)thiazol-2-ylamino)methyl)thiazol-2-amine dihydrochloride]
- melting point: 97 to 99 °C

- percentage of the "number of peaks" value obtained for the control reaction without added compound ([1]; 100 nM compound): 29.4%
- percentage of the "peaks x height" value obtained for the control reaction without added compound ([1]; 100 nM compound): 26.6%
- percentage of the "number of peaks" value obtained for the control reaction without added compound ([1]; 200 nM compound): 51.2%
- percentage of the "peaks x height" value obtained for the control reaction without added compound ([1]; 200 nM compound): 45.1%
Molecule: CCCNc1ccc(NCc2ccc(NCc3ccc(NCCC)nc3)nc2)nc1 [Compound 2c, N^5-Propyl-N^2-((6-((6-(propylamino)pyridin-3-yl)methylamino)pyridin-3-yl)methyl)pyridine-2,5-diamine]

Molecule: 3-Aminopyrazole trimer
- metabolic stability [3]: metabolically unstable
- carcinogenicity [4]: carcinogenic
- mutagenicity [4]: mutagenic
